{
  "source": "ChEMBL document CHEMBL1201862",
  "about": "“PubChem BioAssay data set” (2004)",
  "test_in_all_cases": "inhibition of tumour cell growth, NCI panel, 48 h",
  "key": {"[1]": {"test_system": "HCT-15"}, "[2]": {"test_system": "MDA-MB-231"}, "[3]": {"test_system": "COLO 205"}, "[4]": {"test_system": "DU-145"}, "[5]": {"test_system": "NCI-H23"}, "[6]": {"test_system": "UO-31"}, "[7]": {"test_system": "HT-29"}, "[8]": {"test_system": "HL-60"}, "[9]": {"test_system": "ACHN"}, "[10]": {"test_system": "HOP-62"}, "[11]": {"test_system": "SK-MEL-28"}, "[12]": {"test_system": "NCI/ADR-RES"}, "[13]": {"test_system": "PC-3"}, "[14]": {"test_system": "LOX IMVI"}, "[15]": {"test_system": "SK-MEL-5"}, "[16]": {"test_system": "MCF7"}, "[17]": {"test_system": "SF-539"}, "[18]": {"test_system": "OVCAR-3"}, "[19]": {"test_system": "SNB-75"}, "[20]": {"test_system": "RXF 393"}},
  "note": "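Protocol summary: plate cells (96-well), add compound at 5 concentrations, incubate 48 h, interpolate endpoints linearly. GI50 marks 50% less growth.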 Active and inactive are the calls of the source. Rule as the data show it: active = GI50 up to about 1.1 µM and inactive = higher.",
  "data": [
    {"smiles": "Cc1nnc2nc(-c3ccc(Cl)cc3Cl)cc(-c3ccc(Cl)cc3)n12", "values": [
      {"measurement": "GI50", "setting": "[1]", "value": "> 100", "unit": "µM"},
      {"measurement": "GI50", "setting": "[2]", "value": "47.5 µM (inactive)"},
      {"measurement": "GI50", "setting": "[3]", "value": "13.7 µM (inactive)"},
      {"measurement": "GI50", "setting": "[4]", "value": "> 100 µM (inactive)"},
      {"measurement": "GI50", "setting": "[5]", "value": "> 100 µM (inactive)"},
      {"measurement": "GI50", "setting": "[6]", "value": "24.4 µM (inactive)"},
      {"measurement": "GI50", "setting": "[7]", "value": "20.5 µM (inactive)"},
      {"measurement": "GI50", "setting": "[8]", "value": "> 100 µM (inactive)"},
      {"measurement": "GI50", "setting": "[9]", "value": "> 100 µM (inactive)"},
      {"measurement": "GI50", "setting": "[10]", "value": "> 100 µM (inactive)"},
      {"measurement": "GI50", "setting": "[11]", "value": "21 µM (inactive)"},
      {"measurement": "GI50", "setting": "[12]", "value": "87.5 µM (inactive)"},
      {"measurement": "GI50", "setting": "[13]", "value": "57.8 µM (inactive)"},
      {"measurement": "GI50", "setting": "[14]", "value": "> 100 µM (inactive)"},
      {"measurement": "GI50", "setting": "[15]", "value": "68.5 µM (inactive)"},
      {"measurement": "GI50", "setting": "[16]", "value": "31 µM (inactive)"},
      {"measurement": "GI50", "setting": "[17]", "value": "> 100 µM (inactive)"},
      {"measurement": "GI50", "setting": "[18]", "value": "50.1 µM (inactive)"}
    ]},
    {"smiles": "CC(=O)/C(=C/NC(=S)Nc1ccc(Cl)c(Cl)c1)C(=O)Nc1ccccc1C", "values": [
      {"measurement": "GI50", "setting": "[1]", "value": 29.6, "unit": "µM"},
      {"measurement": "GI50", "setting": "[2]", "value": "27.8 µM (inactive)"},
      {"measurement": "GI50", "setting": "[3]", "value": "28.2 µM (inactive)"},
      {"measurement": "GI50", "setting": "[4]", "value": "26.4 µM (inactive)"},
      {"measurement": "GI50", "setting": "[19]", "value": "18.1 µM (inactive)"},
      {"measurement": "GI50", "setting": "[5]", "value": "23.6 µM (inactive)"},
      {"measurement": "GI50", "setting": "[6]", "value": "22.3 µM (inactive)"},
      {"measurement": "GI50", "setting": "[7]", "value": "22.3 µM (inactive)"},
      {"measurement": "GI50", "setting": "[8]", "value": "17.1 µM (inactive)"},
      {"measurement": "GI50", "setting": "[9]", "value": "32.6 µM (inactive)"},
      {"measurement": "GI50", "setting": "[10]", "value": "33.4 µM (inactive)"},
      {"measurement": "GI50", "setting": "[11]", "value": "44.7 µM (inactive)"},
      {"measurement": "GI50", "setting": "[12]", "value": "18.7 µM (inactive)"},
      {"measurement": "GI50", "setting": "[14]", "value": "34 µM (inactive)"},
      {"measurement": "GI50", "setting": "[15]", "value": "19.2 µM (inactive)"},
      {"measurement": "GI50", "setting": "[20]", "value": "29.4 µM (inactive)"},
      {"measurement": "GI50", "setting": "[16]", "value": "26.9 µM (inactive)"},
      {"measurement": "GI50", "setting": "[17]", "value": "14.5 µM (inactive)"},
      {"measurement": "GI50", "setting": "[18]", "value": "24.3 µM (inactive)"}
    ]},
    {"smiles": "N#CC[C@@H](O)COc1ccccc1", "values": [
      {"measurement": "GI50", "setting": "[1]", "value": "> 100", "unit": "µM"},
      {"measurement": "GI50", "setting": "[2]", "value": "> 100 µM (inactive)"},
      {"measurement": "GI50", "setting": "[3]", "value": "> 100 µM (inactive)"},
      {"measurement": "GI50", "setting": "[4]", "value": "> 100 µM (inactive)"},
      {"measurement": "GI50", "setting": "[19]", "value": "> 100 µM (inactive)"},
      {"measurement": "GI50", "setting": "[5]", "value": "> 100 µM (inactive)"},
      {"measurement": "GI50", "setting": "[6]", "value": "> 100 µM (inactive)"},
      {"measurement": "GI50", "setting": "[7]", "value": "> 100 µM (inactive)"},
      {"measurement": "GI50", "setting": "[8]", "value": "> 100 µM (inactive)"},
      {"measurement": "GI50", "setting": "[9]", "value": "> 100 µM (inactive)"},
      {"measurement": "GI50", "setting": "[10]", "value": "> 100 µM (inactive)"},
      {"measurement": "GI50", "setting": "[11]", "value": "> 100 µM (inactive)"},
      {"measurement": "GI50", "setting": "[13]", "value": "> 100 µM (inactive)"},
      {"measurement": "GI50", "setting": "[14]", "value": "> 100 µM (inactive)"},
      {"measurement": "GI50", "setting": "[15]", "value": "> 100 µM (inactive)"},
      {"measurement": "GI50", "setting": "[20]", "value": "> 100 µM (inactive)"},
      {"measurement": "GI50", "setting": "[16]", "value": "> 100 µM (inactive)"},
      {"measurement": "GI50", "setting": "[17]", "value": "> 100 µM (inactive)"},
      {"measurement": "GI50", "setting": "[18]", "value": "> 100 µM (inactive)"}
    ]},
    {"smiles": "Cc1nc2ccc(F)cc2c2c1CCO2", "values": [
      {"measurement": "GI50", "setting": "[1]", "value": "> 100", "unit": "µM"},
      {"measurement": "GI50", "setting": "[2]", "value": "20.1 µM (inactive)"},
      {"measurement": "GI50", "setting": "[3]", "value": "72.8 µM (inactive)"},
      {"measurement": "GI50", "setting": "[4]", "value": "> 100 µM (inactive)"},
      {"measurement": "GI50", "setting": "[19]", "value": "> 100 µM (inactive)"},
      {"measurement": "GI50", "setting": "[5]", "value": "> 100 µM (inactive)"},
      {"measurement": "GI50", "setting": "[6]", "value": "92.3 µM (inactive)"},
      {"measurement": "GI50", "setting": "[7]", "value": "82.6 µM (inactive)"},
      {"measurement": "GI50", "setting": "[8]", "value": "24.5 µM (inactive)"},
      {"measurement": "GI50", "setting": "[9]", "value": "> 100 µM (inactive)"},
      {"measurement": "GI50", "setting": "[11]", "value": "> 100 µM (inactive)"},
      {"measurement": "GI50", "setting": "[12]", "value": "> 100 µM (inactive)"},
      {"measurement": "GI50", "setting": "[14]", "value": "> 100 µM (inactive)"},
      {"measurement": "GI50", "setting": "[15]", "value": "43.5 µM (inactive)"},
      {"measurement": "GI50", "setting": "[20]", "value": "36.8 µM (inactive)"},
      {"measurement": "GI50", "setting": "[17]", "value": "> 100 µM (inactive)"}
    ]},
    {"smiles": "COc1ccc(C2=C(OC(C)=O)c3cccn3-c3ccccc3S2)cc1", "values": [
      {"measurement": "GI50", "setting": "[1]", "value": 1.18, "unit": "µM"},
      {"measurement": "GI50", "setting": "[2]", "value": "0.728 µM (active)"},
      {"measurement": "GI50", "setting": "[3]", "value": "2.7 µM (inactive)"},
      {"measurement": "GI50", "setting": "[4]", "value": "2.46 µM (inactive)"},
      {"measurement": "GI50", "setting": "[19]", "value": "2.41 µM (inactive)"},
      {"measurement": "GI50", "setting": "[5]", "value": "1.89 µM (inactive)"},
      {"measurement": "GI50", "setting": "[7]", "value": "2.19 µM (inactive)"},
      {"measurement": "GI50", "setting": "[8]", "value": "0.512 µM (active)"},
      {"measurement": "GI50", "setting": "[10]", "value": "3.1 µM (inactive)"},
      {"measurement": "GI50", "setting": "[11]", "value": "3.66 µM (inactive)"},
      {"measurement": "GI50", "setting": "[13]", "value": "2.3 µM (inactive)"},
      {"measurement": "GI50", "setting": "[14]", "value": "4.55 µM (inactive)"},
      {"measurement": "GI50", "setting": "[15]", "value": "3.37 µM (inactive)"},
      {"measurement": "GI50", "setting": "[20]", "value": "1.61 µM (inactive)"},
      {"measurement": "GI50", "setting": "[16]", "value": "3.48 µM (inactive)"}
    ]},
    {"smiles": "COc1cc(C/C=C/c2ccccc2)c(OC)cc1O", "note": "[VIOLASTYRENE]", "values": [
      {"measurement": "GI50", "setting": "[1]", "value": 17.9, "unit": "µM"},
      {"measurement": "GI50", "setting": "[2]", "value": "15.1 µM (inactive)"},
      {"measurement": "GI50", "setting": "[3]", "value": "22.3 µM (inactive)"},
      {"measurement": "GI50", "setting": "[4]", "value": "17.3 µM (inactive)"},
      {"measurement": "GI50", "setting": "[19]", "value": "24.6 µM (inactive)"},
      {"measurement": "GI50", "setting": "[5]", "value": "21.3 µM (inactive)"},
      {"measurement": "GI50", "setting": "[6]", "value": "16.8 µM (inactive)"},
      {"measurement": "GI50", "setting": "[7]", "value": "20.9 µM (inactive)"},
      {"measurement": "GI50", "setting": "[8]", "value": "23.6 µM (inactive)"},
      {"measurement": "GI50", "setting": "[9]", "value": "23.6 µM (inactive)"},
      {"measurement": "GI50", "setting": "[11]", "value": "18.7 µM (inactive)"},
      {"measurement": "GI50", "setting": "[12]", "value": "26.5 µM (inactive)"},
      {"measurement": "GI50", "setting": "[13]", "value": "21.6 µM (inactive)"},
      {"measurement": "GI50", "setting": "[14]", "value": "17.7 µM (inactive)"},
      {"measurement": "GI50", "setting": "[15]", "value": "23.7 µM (inactive)"},
      {"measurement": "GI50", "setting": "[17]", "value": "17.9 µM (inactive)"},
      {"measurement": "GI50", "setting": "[18]", "value": "20.1 µM (inactive)"}
    ]}
  ]
}
